Several values for one entry are separate records, joined by “and”; a condition that tells them apart may be missing. Identical values can stand only once. Like-named read-outs stand apart in the source and are kept apart here.
Experiments:
[1] = biological target: almond β-glucosidase (EC 3.2.1.21); assay: Almond β-glucosidase inhibition, p-nitrophenyl β-D-glucopyranoside substrate, 96-well plate; format: biochemical; settings: β-Glucosidase from almonds; NI: no inhibition
Method: To broaden the scope of the analysis, β-glucosidase (almond) activity of the same set of compounds was conducted using the corresponding p-nitrophenyl β-D-glucopyranoside.
(§1) Biological assays: Yeast α-glucosidase (EC 3.2.1.20) and almond β-glucosidase (EC 3.2.1.21) activity was assessed using a 96-well plate assay. Assays contained 20 mM NaOAc at pH 6.8 (α-glucosidase) and pH 6.2 (β-glucosidase), 10 mM PIPES (piperazine-N,N′-bis(2-ethanesulfonic acid), 0.1 mM EDTA, α-glucosidase (5 μg/mL), β-glucosidase (6 μg/mL), and inhibitor (0.1–2 mM). Enzyme and inhibitor were equilibrated at 37 °C for 30 min. The reaction was initiated by the addition of p-nitrophenyl α-D-glucopyranoside (200 μM) or p-nitrophenyl β-D-glucopyranoside (200 μM), and then it was quenched with 100 μL of sodium carbonate 3.0 M after 25 min incubation at 37 °C. Assays were repeated in duplicate and data averaged.

[2] = biological target: T1, α-glucosidase (from Saccharomyces cerevisiae) (Saccharomyces cerevisiae, UniProt P53341); assay: Yeast α-glucosidase inhibition, p-nitrophenyl α-D-glucopyranoside substrate, 96-well plate; format: biochemical
Method: as §1

[3] = biological target: T1, α-glucosidase (from Saccharomyces cerevisiae); assay: as above; format: biochemical; settings: tested concentration 15–2000 µM
[4] = system: yeast α-glucosidase; settings: at 1 mM; cited from earlier work
[5] = system: Bacillus stearothermophilus α-glucosidase; set-up: method as in PMID 9113331; settings: cited from earlier work; for % α-glucosidase inhibition: tested at 1 mM in Bacillus stearothermophilus
[6] = system: β-glucosidase; settings: cited from earlier work; for % β-glucosidase inhibition: at 1 mM
[7] = NI: no inhibition, read-out: Inhibition (µM) α-Glucosidase (IC50)
[8] = read-out: Inhibition (µM) α-Glucosidase (IC50), NI: no inhibition

T1 sequence (P53341 whole entry): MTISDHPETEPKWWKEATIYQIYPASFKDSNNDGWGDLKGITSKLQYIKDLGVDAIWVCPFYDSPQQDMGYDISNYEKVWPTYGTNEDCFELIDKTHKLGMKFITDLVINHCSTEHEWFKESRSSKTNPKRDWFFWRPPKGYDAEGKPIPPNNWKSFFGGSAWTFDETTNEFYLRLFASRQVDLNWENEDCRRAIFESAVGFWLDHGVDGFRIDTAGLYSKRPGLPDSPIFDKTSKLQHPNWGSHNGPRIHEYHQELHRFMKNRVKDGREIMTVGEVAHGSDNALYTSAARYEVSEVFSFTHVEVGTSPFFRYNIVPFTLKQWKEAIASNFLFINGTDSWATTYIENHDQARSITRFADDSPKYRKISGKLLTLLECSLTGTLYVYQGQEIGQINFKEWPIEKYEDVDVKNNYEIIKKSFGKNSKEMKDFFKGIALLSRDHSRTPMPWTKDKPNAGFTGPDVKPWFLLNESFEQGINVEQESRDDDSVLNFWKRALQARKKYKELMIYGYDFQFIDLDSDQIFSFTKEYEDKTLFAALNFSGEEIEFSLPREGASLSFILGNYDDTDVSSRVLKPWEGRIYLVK

| SMILES | IC50 [1] | IC50 [2, 7] | other results |
| --- | --- | --- | --- |
| C#CCN1C[C@@H](O)[C@@H](O)[C@H](O)[C@@H]1CO [26a, N-Propynyl-1,5-dideoxy-1,5-imino-L-gulitol] | 1716 ± 12.8 µM | > 2000 µM | – |
| C#CCN1C[C@@H](O)[C@@H](O)[C@H](O)[C@H](O)C1 [26b, N-Propynyl-1,6-dideoxy-1,6-imino-D-mannitol] | > 2000 µM | > 2000 µM | – |
| CCCCN1C[C@@H](O)[C@@H](O)[C@H](O)[C@@H]1CO [27a, N-Butyl-1,5-dideoxy-1,5-imino-L-gulitol] | – | – | IC50 [2, 8]: > 2000 µM |
| CCCCN1C[C@@H](O)[C@@H](O)[C@H](O)[C@H](O)C1 [27b, N-Butyl-1,6-dideoxy-1,6-imino-D-mannitol] | 184 µM and 185 µM | – | – |
| OCCN1C[C@@H](O)[C@@H](O)[C@H](O)[C@@H]1CO [28a, N-Hydroxyethyl-1,5-dideoxy-1,5-imino-L-gulitol] | > 2000 µM | – | IC50 [2, 8]: > 2000 µM |
| OCCN1C[C@@H](O)[C@@H](O)[C@H](O)[C@H](O)C1 [28b, N-Hydroxyethyl-1,6-imino-D-mannitol] | > 2000 µM | > 2000 µM | – |
| OC[C@H]1[C@@H](O)[C@H](O)[C@H](O)CN1CCc1ccccc1 [29a, N-Phenethyl-1,5-dideoxy-1,5-imino-L-gulitol] | > 2000 µM | > 2000 µM | – |
| O[C@H]1[C@H](O)[C@H](O)CN(CCc2ccccc2)C[C@H]1O [29b, N-Phenethyl-1,6-dideoxy-1,6-imino-D-mannitol] | > 2000 µM | > 2000 µM | – |
| C#CCN1C[C@H](O)[C@@H](O)[C@H](O)[C@H]1CO [39a, N-Propynyl-1,5-dideoxy-1,5-imino-D-glucitol] | 636 ± 8.5 µM | > 2000 µM | yeast α-glucosidase inhibition (in words) [3]: weak or no α-glucosidase inhibition |
| C#CCN1C[C@H](O)[C@@H](O)[C@H](O)[C@@H](O)C1 [39b, N-Propynyl-1,6-dideoxy-1,6-imino-L-iditol] | 3440 ± 70.6 µM | > 2000 µM | yeast α-glucosidase inhibition (in words) [3]: weak or no α-glucosidase inhibition |
| CCCCN1C[C@H](O)[C@@H](O)[C@H](O)[C@H]1CO [40a, N-Butyl-1,5-dideoxy-1,5-imino-D-glucitol, reference compound] | – | – | yeast α-glucosidase inhibition (in words) [3]: weak or no α-glucosidase inhibition; IC50 [2, 8]: > 2000 µM |
| CCCCN1C[C@H](O)[C@@H](O)[C@H](O)[C@@H](O)C1 [40b, N-Butyl-1,6-dideoxy-1,6-imino-L-iditol] | 80 ± 4.9 µM | > 2000 µM | yeast α-glucosidase inhibition (in words) [3]: weak or no α-glucosidase inhibition; % inhibition, α-glucosidase [4]: 14% |
| O[C@H]1[C@H](O)[C@H](O)CNC[C@H]1O [D-manno-azepane, 1,6-dideoxy-1,6-imino-D-mannitol] | – | – | % α-glucosidase inhibition [5]: 55%; % β-glucosidase inhibition [6]: 1% |
| OC[C@H]1NC[C@H](O)[C@@H](O)[C@@H]1O [DNJ, 1-deoxynojirimycin, reference compound] | 33 µM and 33.1 µM | – | Ki ([5]; Bacillus stearothermophilus α-glucosidase): 0.44 µM; Ki [6]: […] |
| OC[C@@H]1NC[C@@H](O)[C@@H](O)[C@@H]1O [nonsubstituted L-gulo-piperidine, 1-deoxy-L-gulo-nojirimycin] | – | – | % α-glucosidase inhibition [5]: 30%; % β-glucosidase inhibition [6]: […] |

Continued, in another order:

| IC50 [1] | IC50 [2, 7] | SMILES | other results |
| --- | --- | --- | --- |
| 4 ± 1.5 µM | – | OCCN1C[C@H](O)[C@@H](O)[C@H](O)[C@H]1CO [41a, N-Hydroxyethyl-1,5-dideoxy-1,5-imino-D-glucitol, reference compound] | IC50 ([2]; Inhibition (µM) α-Glucosidase (IC50), NI: no inhibition): 41 µM and 41.3 µM |
| 4 ± 1.4 µM | 138 µM and 139 µM | OCCN1C[C@H](O)[C@@H](O)[C@H](O)[C@@H](O)C1 [41b, N-Hydroxyethyl-1,6-dideoxy-1,6-imino-L-iditol] | – |
